The text below walks through data of patent US5648368A, “Fibrinogen receptor antagonists” (Merck & Co., Inc., priority 1995, dated 1997).

The subject of the first test is cell attachment-promoting effects of fibronectin and vitronectin.
Assay: not given
The conditions noted are these: background statement; cited from earlier work.
With “arginine-glycine-aspartic acid [Arg-Gly-Asp]”, the “activity of the tripeptide Arg-Gly-Asp” value is recorded as “low activity”.

Another test has as its system gpIIb/IIIa complex.
Assay: not given
The conditions noted are these: snake venom polypeptides; literature; cited from earlier work.
With Echistatin, the “affinity for the gpIIb/IIIa complex” value is given as “high affinity”.

A further test deals with gel-filtered human platelets. Kind of test: ADP-stimulated/ADP-mediated platelet aggregation inhibition (Chronolog aggregometer). The test is classed as cell-based. The settings on record: Homo sapiens, Platelet; table 2; "Using the methods previously described"; read-out: IC50 (μM) Inhibition of Platelet Aggregation. On the procedure:
Platelet aggregation is measured at 37° C. in a Chronolog aggregometer. The reaction mixture contains gel-filtered human platelets (2×10^8 per ml), fibrinogen (100 micrograms per ml (ug/ml)), Ca^2 + (1 mM), and the compound to be tested. The aggregation is initiated by adding 10 μM ADP 1 minute after the other components are added. The reaction is then allowed to proceed for at least 2 minutes. The extent of inhibition of aggregation is expressed as the percentage of the rate of aggregation observed in the absence of inhibitor. The IC50 is the dose of a particular compound inhibiting aggregation by 50% relative to a control lacking the compound.
In addition to the following preparative procedures, several examples of in-vitro bioactivity of compounds within the scope of the present invention are indicated. To illustrate, one test which is used to evaluate fibrinogen receptor antagonist activity is based on evaluation of inhibition of ADP-stimulated platelets. Aggregation requires that fibrinogen bind to and occupy the platelet fibrinogen receptor site. Inhibitors of fibrinogen binding inhibit aggregation. In the ADP-stimulated platelet aggregation assay used to determine inhibition associated with the compounds claimed in the instant invention, human platelets are isolated from fresh blood, collected into acid citrate/dextrose by differential centrifugation followed by gel filtration on Sepharose 2B in divalent ion-free Tyrode's buffer (pH 7.4) containing 2% bovine serum albumin. [drawing 11]
For the compound `O=C(NC[C@H](NS(=O)(=O)c1ccccc1)C(=O)O)c1cccc(OCCCC2CCNCC2)c1`, the IC50 was found to be 0.056 µM.
Same read-out and setting: to `CCCCS(=O)(=O)N[C@@H](CNC(=O)c1cc(C(=O)NCCC2CCNCC2)ccc1C)C(=O)O` belongs 0.15 µM; to `O=C(NCCC1CCNCC1)c1ccc(C(=O)NC[C@H](NS(=O)(=O)c2cccnc2)C(=O)O)cc1`, 0.017 µM.
The same measure, in the same setting: to `O=C(NCCCC1CCNCC1)c1ccc(C(=O)NC[C@H](NS(=O)(=O)c2cccnc2)C(=O)O)cc1` belongs 0.052 µM; to `O=C(O)CCNC(=O)c1ccnc(C(=O)NCCC2CCNCC2)c1`, 1.6 µM.
Same read-out and setting: to `O=C(O)CCNC(=O)c1cc(C(=O)NCCC2CCNCC2)ccn1` belongs 1.1 µM.
Regarding `O=C(NC[C@H](NS(=O)(=O)c1ccccc1)C(=O)O)c1ccc(S(=O)(=O)CCC2CCNCC2)cc1`, the IC50 is 0.019 µM.
Same read-out and setting: to `O=C(NC[C@H](NS(=O)(=O)c1ccccc1)C(=O)O)c1ccc(OCCCC2CNC2)cc1` belongs 0.01 µM; to `Cc1ccc(C(=O)NCCC2CCNCC2)cc1C(=O)NCCC(=O)O`, 0.45 µM.
Still for that read-out and setting: to `O=C(NC[C@H](NS(=O)(=O)c1ccccc1)C(=O)O)c1ccc(OCCN2CCNCC2)cc1` belongs 0.023 µM.
Still for that read-out and setting: for `O=C(NC[C@H](NS(=O)(=O)c1cccnc1)C(=O)O)c1ccc(OCCC2CCNCC2)cc1` the value was 0.009 µM; for `CCCCS(=O)(=O)N[C@@H](CNC(=O)c1cncc(C(=O)NCCC2CCNCC2)c1)C(=O)O`, 0.11 µM; for `O=C(NC[C@H](NS(=O)(=O)c1ccccc1)C(=O)O)c1ccc(NCCC2CCNCC2)cc1`, 0.009 µM.
As for `O=C(NC[C@H](NS(=O)(=O)c1ccccc1)C(=O)O)c1ccc(OCCC2CNC2)cc1`, the IC50 stood at 0.017 µM.
The same measure, in the same setting: for `CCCCS(=O)(=O)N[C@@H](CNC(=O)c1cccc(C(=O)N(C)CCC2CCNCC2)c1)C(=O)O` the value was 0.023 µM; for `CCCCS(=O)(=O)N[C@@H](CNC(=O)c1ccc(C(=O)NCCC2CCNCC2)cc1)C(=O)O`, 0.02 µM.
The same measure, in the same setting: for `CCCCS(=O)(=O)N[C@@H](CNC(=O)c1ccc(C(=O)NCC2CCNCC2)cc1)C(=O)O` the value was 0.14 µM.

Still in this test, the particulars now being: Platelet; gel-filtered human platelets 2×10^8 per ml, fibrinogen 100 ug/ml, Ca2+ 1 mM, 10 μM ADP, 37° C.; table 1; read-out: IC50 for inhibition of ADP-mediated platelet aggregation.
`CCCCS(=O)(=O)N[C@@H](CNC(=O)CCc1ccc(C2=CCNCC2)cc1)C(=O)O` [4-(1,2,5,6-Tetrahydropyridin-4-yl)phenyl-3-propionyl-[2(S)-n-butylsulfonylamino]-β-alanine]: the IC50 was found to be 0.022 µM.
On the same count and under the same terms, for `O=C(NC[C@H](NS(=O)(=O)c1ccccc1)C(=O)O)c1ccc(OCCC2CCNCC2)cc1` [4-[2-(Piperidin-4-yl)ethoxy]benzoyl-2(S)-phenylsulfonylamino-β-alanine] the value was 0.014 µM; for `O=C(O)CCNC(=O)Cc1cccc(OCC2CCNCC2)c1` [3-[(4-Piperidinyl)methyloxy]-N-(2-carboxyethyl)phenyl Acetamide], 56 µM.
On the same count and under the same terms, to `O=C(O)CCNC(=O)CCc1cccc(CC2CCNCC2)c1` [3-[3-(Piperidin-4-ylmethyl)phenyl]propionyl-β-alanine] belongs 170 µM; to `O=C(O)CCNC(=O)CCc1ccc(C2=CCNCC2)cc1` [4-(1,2,5,6-Tetrahydropyridin-4-yl)phenyl-3-propionyl-β-alanine], 1.7 µM.
The same measure, in the same setting: to `O=C(O)CCNC(=O)CCc1ccc(C2CCNCC2)cc1` [4-(Piperidin-4-yl)phenyl-3-propionyl-β-alanine] belongs 11 µM; to `CC(CC(=O)NCCC(=O)O)c1ccc(C2=CCNCC2)cc1` (stereo not drawn) [3-[4-(1,2,5,6-Tetrahydropyridin-4-yl)phenyl]butyryl-β-alanine], 1.3 µM; to `CCCCS(=O)(=O)N[C@@H](CNC(=O)CCc1ccc(C2CCNCC2)cc1)C(=O)O` [4-(Piperidin-4-yl)phenyl-3-propionyl-[2(S)-n-butyl-sulfonylamino]-β-alanine], 0.1 µM.

Still in this test, the particulars now being: gel-filtered human platelets 2×10^8 per ml, fibrinogen 100 ug/ml, Ca2+ 1 mM, 10 μM ADP, 37° C.; table 1; read-out: IC50 for inhibition of ADP-mediated platelet aggregation.
As to `O=C(O)CC(CCc1c[nH]c2ccccc12)NC(=O)Cc1cccc(OCC2CCNCC2)c1` (centres unmarked) [3-[(4-Piperidinyl)methyloxy]-N-[3-(2-indol-3-yl)ethyl Propionic Acid]-phenyl Acetamide], the IC50 worked out at 5.2 µM.
`CCCCS(=O)(=O)N[C@@H](Cc1ccc(NC(=O)CCCC2CCNCC2)cc1)C(=O)O` [4-(4-Piperidin-4-yl)-N-3[2(S)-n-butylsulfonylaminopropionic acid]-phenylbutyramide]: the IC50 is 0.095 µM.
